Assay results taken from patent US20040259806A1 (priority 2001, published 2004).
Where two headings read alike, the source gives them in different places.

Tests used:
tuberculosis = test: SCV-07 therapy of a patient with infiltrative tuberculosis (Example 1); type: in vivo, human; details: after SCV-07 0.1 mg daily for 5 days
Experimental: A patient, was admitted to the hospital with infiltrative tuberculosis with destruction and dissemination in the upper lobe of the left lung. […] Lymphopenia (18%) and increased ESR (25 mm/h) were present in the blood count. […] Aggressive traditional antituberculosis therapy was carried out including isoniazid at 600 mg/day intravenously, pyrazinamid at 1500 mg/day per os, rifampicin at 450 mg/day per os.
The traditional therapy was unsuccessful, and SCV-07 treatment was undertaken. Following a course of SCV-07 therapy at 0.1 mg daily for 5 days, bacterial intoxication resolved, destructive cavities closed and the sputum culture test was negative. CD3+ lymphocytes increased and tolerance to other drugs improved.

M. bovis 8 = type: in vivo, mice
blood leukocytes = type: in vivo, mice
thymic cells = test: Thymic cell proliferation (3H-thymidine) from treated infected mice; type: in vivo
Experimental: Mice thymuses were collected aseptically, homogenized, suspended in RPMI-1640 medium and filtered through two layers of sterile gauze. Cell suspensions were washed twice in RPMI-1640 with 2 mM L-glutamine and […] gentamycin, then counted using a Goriaev hemocytometer.
(§1) Spleen cells and thymic cells were isolated as described above. In vitro, thymic cells were diluted to 10^7/ml in RPMI-1640 with 2 mM L-glutamine, 80 ìg/ml gentamycin and 4% heat-inactivated fetal calf serum (Sigma, St. Louis, Mo.). Spleen cells were diluted to 3×10^6/ml in RPMI-1640 with 2 mM L-glutamine, 80 ìg/ml gentamycin and 20% inactivated fetal calf serum. 0.5 ìg/ml Concanavalin A (Con A, Sigma, St. Louis, Mo.) was used to stimulate thymic cell proliferation. For spleen cell proliferation, 0.5 ìg/ml Con A, 10 ìg/ml lipopolysaccharide (Sigma, St. Louis, Mo.), and 50 ìg/ml tuberculin purified protein derivative (PPD) were utilized. The assay was carried out in 96-well plates and cell cultures were incubated for 72 hours, or 96 hours if tuberculin was used, at 37° C. in humidified 5% CO2, then pulsed with 5 ìl Ci/ml ^3H-thymidine overnight (approximately 16 h) and harvested on filters using a semi-automated harvester (Titertek™, Flow Laboratories, Norway). Filters were dried and proliferation calculated by ^3H-thymidine incorporation by counting samples in a liquid scintillation counter (LKB 1217 Racketa, Wallace, Sweden). Data was expressed in impulses per minute.

spleen cells = test: Spleen cell proliferation (Con A, LPS, tuberculin) from treated infected mice; type: in vivo
Experimental: Spleens from mice were harvested aseptically, homogenized in RPMI-1640 medium (Biolot, Russia) and filtered through two layers of sterile gauze. Erythrocytes were lysed in 0.83% percent ammonium chloride solution after centrifugation of the homogenate. Spleen cells were washed twice with RPMI-1640 with 2 mM L-glutamine and […] gentamycin (Sigma, St. Louis, Mo.), then counted using a Goriaev hemocytometer.
as §1

IL-2 = IL-2 production by Con A stimulated spleen cells (CTLL-2 assay); type: in vivo, mice
Experimental: (§2) In RPMI-1640, spleen cells were diluted to a concentration of 10^7/ml with 10% fetal calf serum, 2 mM L-glutamine and 80 ìg/ml gentamycin. A 100 ìl cell suspension was added to each well of a 96-well culture plate and cytokine production was induced by Con A at a final concentration of 2.5 ìg/ml. A control well included RPMI-1640. For 24 hours, cells were incubated at 37° C. and humidified in 5% CO2. Following incubation, […] of supernatant was removed from each well and stored at −70° C.
In order to determine the IL-2 concentration in cell culture supernatants, the CTLL-2 IL-2 dependent cell line was used. CTLL-IL-2 cells were washed twice in RPMI-1640 and counted with a Goriaev hemocytometer. Supernatants were diluted in 96-well culture plates at dilutions of 1:5, 1:15, 1:45 and 1:135 in a volume of 100 il. IL-2 standard dilutions were also prepared. Cells were diluted to 2×10^5/ml in RPMI-1640 with 10% inactivated fetal calf serum, 2 mM L-glutamine, 80 ìg/ml gentamycin. The 100 ìl suspension was added to each well of the culture plate and incubated for 48 h at 37° C. in 5% CO2 humidity. Ten ìl of 5 i Ci/ml ^3H-thymidine was added to each well 16 h before the end of incubation. Following incubation, the cells were harvested on filters through the use of a semi-automated harvester and samples were counted in a liquid scintillation counter.

IL-4 and IFN-γ [1] = test: IL-4 and INF-γ in spleen cell supernatants (Quantikine ELISA); type: in vivo, mice
Experimental: as §2
IL-4 and INF-γ assays in Con A-stimulated spleen cell supernatants were also performed using Quantikine™ ELIZA kits R & D Systems, Minneapolis, Minn.) in accordance with kit instructions. Plates were coated with monoclonal antibodies to either IL-4 or IFN-γ and blocked. Standards and samples were subsequently added. The cells were incubated for 2 h and washed, following with the addition of a colorimetric substrate. After 30 minutes, the reaction was terminated and plates were read at 450 nm using a plate reader (Multiscan™ 3550, BioRad, Japan).

IL-4 and IFN-γ [2] = test: INF-γ and IL-4 concentrations in blood serum; type: in vivo, mice
[3] = 24 days after end of therapy, Group 7 (0.1 ìg/kg ip) versus Group 3 (isoniazid control)
[4] = 17 days after SCV-07 therapy, Groups 8 and 9 (0.01 ìg/kg ip and 1 ìg/kg po)
[5] = after 10 days, Groups 4, 5, 6 and 7

Q: Which results are given for `N[C@H](CCC(=O)N[C@@H](Cc1c[nH]c2ccccc12)C(=O)O)C(=O)O` [SCV-07, γ-D-glutamyl-L-tryptophan]?
A: CD3+ lymphocytes (tuberculosis): increased; bacterial intoxication (tuberculosis): resolved; destructive cavities (tuberculosis): closed; Immune complexes in circulation (tuberculosis; from 84 U, normal level 22-66 U): 69 U; sputum culture test (tuberculosis; traditional therapy was unsuccessful): negative; M. bovis growth in spleen culture (M. bovis 8; 5 daily injections of 0.01 ìg/kg): decreases; differences between the control and experimental groups (M. bovis 8; 10 days and 17 days after termination of treatment, groups other than Group 7): lacked significance; growth of M bovis cultured from spleens (M. bovis 8; [3]): 200±0 CFU; lung weight index (M. bovis 8; [3]): 1.38±0.06; spleen weight index (M. bovis 8; [3]): 1.59±0.25; increase in body weight (M. bovis 8; 24 days after end of therapy, Group 7 (SCV-07 0.1 ìg/kg ip, 5 injections, with isoniazid) versus Group 3 (isoniazid control)): 30.8%; M. bovis growth in spleen cultures, significant decrease (M. bovis 8; Group 5 (1 ìg/kg ip, 5 injections), 24 days after treatment): this trend did not occur; M. bovis growth in spleen cultures (M. bovis 8; Group 6 (1 ìg/kg ip, 10 injections), 24 days after treatment, 275±14.1 CFU in the control): 190±21.5 CFU; lung damage index, difference to isoniazid control (Group 3) (M. bovis 8; Group 7 (0.1 ìg/kg ip), 4 days after therapy): Significant differences; lung damage index (M. bovis 8; Group 7 (0.1 ìg/kg ip), 10 days and 17 days after termination of treatment): considerably differed from the control; lung damage index, difference to untreated controls (Group 2) (M. bovis 8; Groups 5, 7, 8 and 9 (1, 0.1, 0.01 ìg/kg ip and 1 ìg/kg po), 4 days after therapy): significant differences; lung damage index (M. bovis 8; all doses, 4 days after the end of 5 days of therapy (Day 28 of infection)): decreased; Significant changes in blood lymphocytes and neutrophilic granulocytes (blood leukocytes; 4 days after therapy): not observed; monocyte levels (blood leukocytes; 10 days after therapy, Groups 6, 7, 8 and 9 compared with Group 3, the isoniazid control): decrease; lymphocyte numbers (blood leukocytes; [4]): increase; percent of neutrophils (blood leukocytes; [4]): significant decrease; basal thymic cell proliferation (thymic cells; SCV-07 treated (Groups 4 to 9) versus control (Groups 1 to 3)): No significant differences; Con A stimulated thymic cell proliferation (thymic cells; after 4 days, Group 7 (0.1 ìg/kg ip) in comparison to Group 3 (isoniazid control)): significantly higher; Con A stimulated thymic cell proliferation response (thymic cells; day 17, Groups 7 and 8 (0.1 and 0.01 ìg/kg ip)): essentially the same response as uninfected mice; Con A stimulated thymic cell proliferation (thymic cells; day 24, Groups 6, 7 and 8 (1 ìg/kg 10 injections ip, 0.1 and 0.01 ìg/kg ip)): higher numbers than the isoniazid control; spleen cell proliferative response with LPS (spleen cells; after 24 days, Group 6 (1 ìg/kg, 10 injections ip)): did not differ from uninfected mice; spleen cell proliferative response with Con A (spleen cells; after 24 days, Groups 6 and 7 (1 ìg/kg, 10 injections ip and 0.1 ìg/kg ip)): did not differ from uninfected mice; spleen cell proliferative response to tuberculin (spleen cells; later than 4 days of therapy, Group 6 (1 ìg/kg ip, 10 injections)): significantly higher than the control; IL-2 production (IL-2; 4 days after therapy, Group 7 (0.1 ìg/kg ip) compared to Group 3 (isoniazid control), Con A stimulated spleen cells): 41.6±5.6 U/ml; IL-2 level (IL-2; 24 days after therapy, Group 6 (1 ìg/kg ip, 10 injections) and Group 7 (0.1 ìg/kg ip)): did not differ from uninfected mice; IL-2 production (IL-2; all treated groups, all time points after therapy): increase; basal IFN-γ production (IL-4 and IFN-γ [1]; 4 days after therapy, versus isoniazid control mice (Group 3)): failed to differ; Con A stimulated INF-γ production (IL-4 and IFN-γ [1]; 10 days after therapy, Groups 4, 5, 6 and 8): stimulation; Con A stimulated IL-4 production (IL-4 and IFN-γ [1]; 10 days after therapy, Groups 5, 6 and 7): significantly decreased; basal IFN-γ production (IL-4 and IFN-γ [1]; 17 days after therapy, all mice): increase; basal INF-γ production (IL-4 and IFN-γ [1]; end of the experiment, only Group 6 (1 ìg/kg ip, 10 injections)): maintenance of this increase; basal IL-4 production (IL-4 and IFN-γ [1]; mouse, in vivo): No significant changes; basal IFN-γ production (IL-4 and IFN-γ [1]; ten days after therapy, Groups 5, 6 and 7): significant elevation; IFN-γ levels in blood serum (IL-4 and IFN-γ [2]; [5]): increased; IL-4 levels in blood serum (IL-4 and IFN-γ [2]; [5]): decreased; concentration of IFN-γ in blood serum (IL-4 and IFN-γ [2]; after 17 days, Groups 4, 5, 6, 7 and 8 (significantly in group 7 and 8)): increased; IL-4 in blood serum (IL-4 and IFN-γ [2]; after 17 days, Groups 5, 6 and 7): significantly decreased
